Laboratory results published in patent publication US7402602B2 (priority 2001, dated 2008).

| SMILES | melting point [°C] |
| --- | --- |
| CCCC(CCC)c1nc(-c2ccc(F)cc2)c[nH]1 | 217.5 |
| CC(C)Cc1ccc(Cc2nc(-c3ccc(-c4ccccc4)cc3)c[nH]2)cc1 [Example 1, 4-(1,1′-biphenyl-4-yl)-2-(4-isobutylbenzyl)-1H-imidazole] | 160 to 161 |
| CCCCCCc1nc(-c2ccc(CC(C)C)cc2)c[nH]1 [Example 2, 2-hexyl-4-(4-isobutylphenyl)-1H-imidazole] | 89 to 90 |
| c1ccc(CCCc2nc(-c3ccccc3)c[nH]2)cc1 [Example 3, 4-phenyl-2-(3-phenylpropyl)-1H-imidazole] | 106 to 108 |
| CCCCCC(CCCCC)c1nc(-c2ccccc2)c[nH]1 [Example 4, 2-(1-pentylhexyl)-4-phenyl-1H-imidazole] | 111.2 |
| CCCCCC(CCCCC)c1nc(-c2ccc(F)cc2)c[nH]1 [Example 5, 4-(4-fluorophenyl)-2-(1-pentylhexyl)-1H-imidazole] | 134.6 |
| Fc1ccc(-c2c[nH]c(CC3CCCCC3)n2)cc1 [Example 6, 2-(cyclohexylmethyl)-4-(4-fluorophenyl)1H-imidazole] | 68 to 70 |
| CCCCCC(CCCCC)c1nc(-c2ccc(-c3ccccc3)cc2)c[nH]1 [Example 7, 4-(1,1′-biphenyl-4-yl)-2-(1-pentylhexyl)-1H-imidazole] | 173.6 |
| CCCC(CCC)c1nc(-c2ccc(C(C)(C)C)cc2)c[nH]1 [Example 8, 4-(4-tert-butylphenyl)-2-(1-propylbutyl)-1H-imidazole] | 200 to 202 |
| CCCC(CCC)c1nc(-c2ccc(-c3ccc(Br)cc3)cc2)c[nH]1 [Example 10, 4-(4′-bromo-1,1′-biphenyl-4-yl)-2-(1-propylbutyl)-1H-imidazole] | 182.8 |
| c1ccc(-c2ccc(-c3c[nH]c(CCC4CCCCC4)n3)cc2)cc1 [Example 11, 4-(1,1′-biphenyl-4-yl)-2-(2-cyclohexylethyl)-1H-imidazole] | 104.9 |
| CCCCCCc1nc(-c2ccc(-c3ccccc3)cc2)c[nH]1 [Example 12, 4-(1,1′-biphenyl-4-yl)-2-hexyl-1H-imidazole] | 104.8 |
| CC(C)Cc1ccc(C(C)c2nc(-c3ccc(-c4ccccc4)cc3)c[nH]2)cc1 (stereo not drawn) [Example 13, 4-(1,1′-biphenyl-4-yl)-2-[1-(4-isobutylphenyl)ethyl]-1H-imidazole] | 172.7 |
| CC(C)Cc1ccc(C(C)c2nc(-c3ccc(F)cc3)c[nH]2)cc1 (stereo not drawn) [Example 14, 4-(4-fluorophenyl)-2-[1-(4-isobutylphenyl)ethyl]-1H-imidazole] | 116 |
| CC(c1ccccc1)c1nc(-c2ccc(-c3ccccc3)cc2)c[nH]1 (stereo not drawn) [Example 15, 4-(1,1′-biphenyl-4-yl)-2-(1-phenylethyl)-1H-imidazole] | 165 to 166 |
| CCCC(CCC)c1nc(-c2ccc(-c3ccccc3)cc2)c[nH]1 [Example 16, 4-(1,1′-biphenyl-4-yl)-2-(1-propylbutyl)-1H-imidazole] | 197 to 198 |
| c1ccc(-c2ccc(-c3c[nH]c(CC4CCCCC4)n3)cc2)cc1 [Example 17, 4-(1,1′-biphenyl-4-yl)-2-(cyclohexylmethyl)-1H-imidazole] | 104 to 105 |
| c1ccc(-c2ccc(-c3c[nH]c(CCCC4CCCCC4)n3)cc2)cc1 [Example 18, 4-(1,1′-biphenyl-4-yl)-2-(3-cyclohexylpropyl)-1H-imidazole] | 118 to 119 |
